Consider one compound from US12187706B2, “NLRP3 modulators” (INNATE TUMOR IMMUNITY, INC., priority 2019, dated 2025).

The target of this experiment is T1, human TLR8 (Homo sapiens, UniProt Q9NR97).
T1 construct: host or cells: human HEK-Blue cells with NF-kB/AP1-inducible SEAP reporter
T1 sequence (Q9NR97 27-1041): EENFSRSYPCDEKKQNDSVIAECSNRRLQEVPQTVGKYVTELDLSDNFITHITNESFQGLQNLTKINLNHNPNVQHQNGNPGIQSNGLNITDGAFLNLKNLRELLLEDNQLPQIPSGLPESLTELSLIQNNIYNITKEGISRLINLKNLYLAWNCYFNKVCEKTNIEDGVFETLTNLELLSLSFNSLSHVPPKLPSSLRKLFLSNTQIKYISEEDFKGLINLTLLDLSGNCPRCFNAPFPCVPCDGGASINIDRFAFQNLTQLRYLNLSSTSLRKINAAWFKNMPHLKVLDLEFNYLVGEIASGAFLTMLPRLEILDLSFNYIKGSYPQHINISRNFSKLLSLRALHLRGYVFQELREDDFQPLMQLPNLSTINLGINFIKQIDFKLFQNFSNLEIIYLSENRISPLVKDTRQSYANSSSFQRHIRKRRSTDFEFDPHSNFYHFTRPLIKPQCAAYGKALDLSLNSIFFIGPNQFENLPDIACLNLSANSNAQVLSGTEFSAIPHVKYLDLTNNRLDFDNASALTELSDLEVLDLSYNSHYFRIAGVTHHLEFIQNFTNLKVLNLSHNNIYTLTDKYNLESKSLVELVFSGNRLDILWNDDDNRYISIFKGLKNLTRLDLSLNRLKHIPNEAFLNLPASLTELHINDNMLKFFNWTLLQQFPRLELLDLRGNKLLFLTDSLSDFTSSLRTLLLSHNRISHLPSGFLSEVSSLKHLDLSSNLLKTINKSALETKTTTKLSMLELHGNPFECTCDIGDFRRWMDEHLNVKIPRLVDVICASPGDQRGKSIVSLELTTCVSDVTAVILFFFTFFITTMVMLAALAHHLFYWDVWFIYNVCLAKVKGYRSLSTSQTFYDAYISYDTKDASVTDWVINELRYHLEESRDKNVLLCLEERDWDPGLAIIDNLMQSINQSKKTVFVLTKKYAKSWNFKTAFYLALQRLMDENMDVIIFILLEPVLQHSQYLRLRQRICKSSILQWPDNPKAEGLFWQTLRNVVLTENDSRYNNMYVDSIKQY
The experiment can be described thus: In vitro human TLR8 reporter assay (HEK-Blue, NF-kB/AP1-inducible SEAP). The class given is cell-based. The conditions noted are these: at 50 μM. Here is the method:
In Vitro Human TLR7 and TLR8 Binding Reporter Assays Logarithmically-growing human HEK-Blue cells co-expressing a TLR7 or TLR8 gene and a NF-kB/AP1-inducible SEAP (secreted embryonic alkaline phosphatase; […] Cellular SEAP production is measured using an Envision plate reader instrument thirty minutes after adding freshly-made Quanti-Blue reagent (prepared by following manufacturer instructions; Invivogen, San Diego, CA) to the HEK-Blue TLR Nf-kB-SEAP cell reactions. All EC50 values (half-maximal effective concentration) are determined using proprietary data analysis software.
Background: In a reporter assay the amount or activity of a reporter protein is the signal.

SMILES strings stand for the structures.

In turn, `Nc1nc(OCCO)c2ccc(-c3ccn[nH]3)cc2n1` [Example 4, 2-((2-amino-7-(1H-pyrazol-3-yl)quinazolin-4-yl)oxy)ethan-1-ol] registered a TLR8 agonist activity of less than 50%.
